{"source": "ChEMBL document CHEMBL1137019", "about": "“Maintenance of therapeutic concentrations of caspofungin after temporary treatment interruption (48 hours) in a child with invasive aspergillosis” (Antimicrob Agents Chemother, 2007)", "key": {"Homo sapiens [1]": {"test_system": "Homo sapiens", "test": "Trough plasma concentration in child with invasive aspergillosis administered at 30 mg/day schedule for 5 days followed by 48 hrs temporary treatment interruption measured on first day of resumption of therapy", "format": "ADME, organism-based", "conditions": "in vivo"}, "[2]": {"test": "Peak plasma concentration in child with invasive aspergillosis at 30 mg/day for 5 days measured on last day of therapy", "format": "ADME, organism-based", "parameters": "dose 30 mg/day", "conditions": "human"}, "[3]": {"test": "Trough plasma concentration in child with invasive aspergillosis at 30 mg/day for 5 days measured on last day of therapy", "format": "ADME, organism-based", "conditions": "human, read-out: Cmin"}, "Homo sapiens [4]": {"test_system": "Homo sapiens", "test": "Plasma concentration in human at 5 to 100 mg, iv", "format": "ADME, organism-based", "conditions": "in vivo"}, "Aspergillus fumigatus": {"test_system": "Aspergillus fumigatus", "test": "Antifungal activity against Aspergillus fumigatus", "format": "functional"}, "[5]": {"test": "Peak plasma concentration in child with invasive aspergillosis administered at 30 mg/day schedule for 5 days followed by 48 hrs temporary treatment interruption measured on first day of resumption of therapy", "format": "ADME, organism-based", "parameters": "dose 30 mg/day", "conditions": "human"}}, "data": [{"smiles": "CC[C@H](C)C[C@H](C)CCCCCCCCC(=O)N[C@H]1C[C@@H](O)[C@@H](NCCN)NC(=O)[C@@H]2[C@@H](O)CCN2C(=O)[C@H]([C@H](O)CCN)NC(=O)[C@H]([C@H](O)[C@@H](O)c2ccc(O)cc2)NC(=O)[C@@H]2C[C@@H](O)CN2C(=O)[C@H]([C@@H](C)O)NC1=O", "note": "[CASPOFUNGIN]", "values": [{"measurement": "Cmin", "setting": "Homo sapiens [1]", "result": 1900, "unit": "ng/mL"}, {"measurement": "Cmax", "setting": "[2]", "result": 11500, "unit": "ng/mL"}, {"measurement": "concentration at 120 h", "setting": "[3]", "result": 6700, "unit": "ng/mL"}, {"measurement": "Cp", "setting": "Homo sapiens [4]", "result": 1000, "unit": "ng/mL"}, {"measurement": "MIC", "setting": "Aspergillus fumigatus", "result": 0.5, "unit": "µg/mL"}, {"measurement": "Cmax", "setting": "[5]", "result": 5600, "unit": "ng/mL"}]}]}
